Series [1] has as its system NO production in LPS/IFNγ-stimulated RAW 264.7 macrophages. Kind of series: Inhibition of NO production in stimulated RAW 264.7 macrophages (Griess assay). It is filed as cell-based. Conditions: Mus musculus, RAW264.7, 16 h incubation. How it is done: RAW 264.7 macrophages were stimulated with lipopolysaccharides (LPS) and interferon-γ (IFNγ) for induction of iNOS gene expression. The effects on NO production were determined by photometric quantification of nitrite accumulation in cell culture supernatants using the Griess assay compared with a sodium nitrite standard curve after 16 h of incubation with the respective sample as described by Baer et al. with slight modifications.[29],[30] Activity is referred to nitrite accumulation of cells treated with LPS/IFN-γ/DMSO (final concentration of 0.1% DMSO serves as solvent control). Test compounds were first dissolved in DMSO and then diluted with PBS to obtain respective concentrations. L-NMMA (N-monomethyl-L-arginine), a known nonselective inhibitor of all NOS isoforms, was used as a positive control. IC50 determination was performed in eight concentrations, each in at least three independent experiments, every time in duplicate.
IC50 values for effects on NO production were calculated with the SigmaPlot program package employing the four-parameter logistic regression model. Statistical differences were evaluated using one-way ANOVA. Differences with a p value < 0.05 were considered significant.
Background: The Griess reaction detects nitrite, a stable product of nitric oxide.

Series [2] can be described thus: Stability on exposure to heat or sunlight (observed color change). In kind it is physicochemical. Conditions: elevated temperatures (45 °C) or direct sunlight at ambient temperature for an extended time; visible color change.
The target of a further series is T1, human PPARγ (Homo sapiens, UniProt P37231).
T1 sequence (P37231 1-477 isoform P37231-2): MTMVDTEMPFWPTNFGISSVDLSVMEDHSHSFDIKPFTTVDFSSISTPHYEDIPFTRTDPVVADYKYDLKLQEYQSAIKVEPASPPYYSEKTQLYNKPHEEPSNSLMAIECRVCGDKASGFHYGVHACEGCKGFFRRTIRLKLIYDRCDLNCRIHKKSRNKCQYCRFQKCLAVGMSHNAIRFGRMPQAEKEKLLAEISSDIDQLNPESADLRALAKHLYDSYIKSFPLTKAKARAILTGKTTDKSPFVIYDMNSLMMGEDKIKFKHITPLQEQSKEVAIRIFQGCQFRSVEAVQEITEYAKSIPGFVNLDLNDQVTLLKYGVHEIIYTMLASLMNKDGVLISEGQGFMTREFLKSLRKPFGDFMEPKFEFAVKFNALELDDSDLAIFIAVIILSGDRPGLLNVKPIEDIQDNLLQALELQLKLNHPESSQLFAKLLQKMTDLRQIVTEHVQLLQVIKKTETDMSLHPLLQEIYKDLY
The experiment in a line: PPARγ luciferase reporter gene transactivation in HEK-293 cells. Conditions: PPARγ-driven luciferase reporter assay, 18 h.

Protocol for human PPARγ: For evaluation of PPARγ activation the test compounds were first dissolved in DMSO, divided into aliquots, and frozen at −20 °C until used. In all experiments, DMSO was applied as solvent control, and the final concentration of DMSO was always kept at ≤0.1%. The PPAR luciferase reporter plasmid (tk-PPREx3-luc) was a kind gift from Prof. Ronald M. Evans (Howard Hughes Medical Institute, La Jolla, CA, USA), the plasmid encoding enhanced green fluorescent protein (pEGFP-N1) was supplied by Clontech (Mountain View, CA, USA), and the plasmid encoding human PPARγ (pSG5-PL-hPPAR-γ1) was kindly supplied by Prof. Walter Wahli and Prof. Beatrice Desvergne (Center for Integrative Genomics, University of Lausanne, Switzerland).
The PPARγ luciferase reporter gene assay was performed as previously described.[27] Briefly, HEK-293 cells (ATCC, Manassas, VA, USA) were grown in DMEM with 2 mM glutamine, 10% FBS, 100 U/mL benzylpenicillin, and 100 μg/mL streptomycin. Cells were grown in 10 cm dishes (6 × 10^6 cells/dish) for 18 h and then transfected by the calcium phosphate precipitation method with 4 μg of plasmid encoding human PPARγ (pSG5-PL-hPPAR-γ1), 4 μg of reporter plasmid (tk-PPREx3-luc), and 2 μg of pEGFP-N1 as control for internal normalization.[28] After 6 h, the cells were transferred to 96-well plates (5 × 10^4 cells/well) in DMEM without phenol red supplemented with charcoal-stripped FBS, glutamine, and antibiotics. The cells were treated with different concentrations of the indicated compounds and incubated for 18 h. Cells were then lysed, and the luminescence of the firefly luciferase and the fluorescence of EGFP were quantified with a GeniosPro microplate reader (Tecan, Grödig, Austria). The luminescence was finally normalized to the EGFP-derived fluorescence from each well to account for differences in transfection efficiency or cell number.
Nonlinear regression (with sigmoidal dose response) was used to calculate the EC50 values and maximal fold activation.

Compound `C=C[C@@H](O)C#CC#C[C@H](/C=C\CCCCCCC)OC(=O)/C=C/c1ccc(O)c(OC)c1` [compound 9, Notoincisol A] displayed an IC50 in series [1] of 14600 ± 700 nM. Besides, in series [2], the stability entry was “unstable”. The compound also yielded an EC50 at human PPARγ of 2300 nM.

For the compound `C=C[C@@H](O)C#CC#C[C@H](/C=C\CCCCCCC)O[C@]1(C)CCC[C@]2(C)CC[C@@H](C(C)(C)O)C[C@H]21` [compound 2, Notoether B], on human PPARγ, it took 1700 nM to reach a half-maximal effect (EC50) and the maximal fold activation came to 2.0.

On human PPARγ, `C=C[C@H]1OCc2cc3cc(OC)c(O)cc3c(C#C[C@@H](O)/C=C\CCCCCCC)c21` [compound 10, Notoincisol B] registered an EC50 of 1700 nM and a maximal fold activation of 2.3.

Take `C=C[C@H](C#CC#C[C@@H](O)/C=C\CCCCCCC)O[C@]1(C)CCC[C@]2(C)CC[C@@H](C(C)(C)O)C[C@H]21` [compound 1, Notoether A]: on human PPARγ, the EC50 was 1900 nM and the maximal fold activation came out at 1.6.

On human PPARγ, `C=C[C@H](C#CC#C[C@@H](O)/C=C\CCCCCCC)O[C@]1(C)CC[C@@H](O)[C@]2(C)CC[C@@H](C(C)C)[C@@H](O)[C@H]21` [compound 3, Notoether C] had an EC50 of 2000 nM and a maximal fold activation of 1.6.

The term IC50 denotes the concentration that gives 50% inhibition. The term EC50 denotes the midpoint of the concentration-response curve.

(Values after paper PMC4251066, “Polyyne Hybrid Compounds from Notopterygium incisum with Peroxisome Proliferator-Activated Receptor Gamma Agonistic Effects” (Journal of Natural Products, 2014).)
